Assay [1] concerns the target T1, Cloned human M1 receptor (CHRM1) stably expressed in HEK293 cells (Homo sapiens, UniProt P11229).
T1 construct: expressed in transfected cells; host or cells: HEK293
T1 sequence (P11229 1-460): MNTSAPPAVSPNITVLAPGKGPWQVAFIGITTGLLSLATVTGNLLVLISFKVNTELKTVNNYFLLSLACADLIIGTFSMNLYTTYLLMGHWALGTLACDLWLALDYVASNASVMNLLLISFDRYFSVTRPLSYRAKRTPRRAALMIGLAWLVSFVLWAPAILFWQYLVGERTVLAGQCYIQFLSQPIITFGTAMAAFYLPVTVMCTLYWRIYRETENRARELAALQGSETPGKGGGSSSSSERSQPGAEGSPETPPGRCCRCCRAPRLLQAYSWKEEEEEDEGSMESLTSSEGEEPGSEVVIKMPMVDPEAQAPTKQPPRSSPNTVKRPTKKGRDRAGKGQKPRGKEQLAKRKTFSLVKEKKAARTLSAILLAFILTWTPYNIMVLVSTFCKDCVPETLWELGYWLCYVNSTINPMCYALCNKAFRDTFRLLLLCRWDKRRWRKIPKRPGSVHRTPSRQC
Description: CHRM1 Ca++ Flux Assay (agonist mode, FDSS 7000EX). To be noted: for pEC50: geometric mean if tested more than once; for M1 FDSS PA: Percent Activity. It counts as cell-based. The method, then:
(§1) The above examples were characterized by measuring the intracellular mobilization of Ca++ ions caused by signaling events mediated by the receptor. The Intra-cellular Calcium flux levels were captured by the highly sensitive Ca++ indicator, Calcium Assay Kit (BD Biosciences, Catalog Number 640178). The fluorescent activity from all receptors were monitored by the fluorescent imager, FDSS 7000EX (Hamamatsu) over a span of 3 minutes.
Cloned human M1 receptor (CHRM1) was stably expressed in HEK293 cells and were grown and maintained in a monolayer culture with DMEM/High Glucose (Life Technologies) supplemented with 10% Fetal Bovine Serum, 1× Pen-Strep, and 0.5 mg/mL Geneticin in a humidified atmosphere (5% CO2) at 37° C. The cultures were grown to 90% confluency in T150 flasks (Corning) and washed with 1×DPBS and lifted with 0.05% Trypsin (Life Technologies). The cells were then spun (1K rpm, 3 minutes) and frozen using Recovery Cell Culture Freezing Media (Gibco Technologies). Cells were stored in liquid nitrogen and thawed a day before the assay.
Prior to the day of the assay, stable HEK293 M1 cells were thawed and plated on 384 well black walled clear bottom TC treated plates (Greiner Cat #781091) at 25K cells/well with DMEM/High Glucose supplemented with 10% FBS (Hyclone) Pen-Strep (Life Technologies) and kept overnight in a humidified atmosphere (5% CO2) at 37° C. The following day, cells were loaded with 20 uL Ca^++ dye (BD Biosciences) using Loading Buffer (HBSS +Ca/+Mg, 20 mM HEPES) and placed back in cell incubator for a minimum of 1 hour. The dye was replaced with 45 μL Assay Buffer (HBSS −Ca/−Mg, 20 mM HEPES) and kept at room temperature prior to running on cell imager. Compounds were prepared in Assay Buffer and 5 uL was added to the cells. The FDSS 7000EX (Hamamatsu) was used to acquire Ca++ traces for 3 minutes from cells treated with 11 point dose in triplicate in order to generate dose response curves in agonist mode. All compounds were serially diluted in DMSO then prepared in Assay Buffer for Ca^++ flux studies. The dose response curves were generated from the average of triplicate wells obtained from each data point and used a non-linear regression of four parameter dose response algorithm. The Percent Activity (PA) was measured to EC100 of Carbachol.

Assay [2] addresses T2, human cloned CHRM5 receptor (M5_CHO) (Homo sapiens, UniProt P08912).
T2 construct: expressed in transfected cells; host or cells: CHO (M5_CHO)
T2 sequence (P08912 1-532): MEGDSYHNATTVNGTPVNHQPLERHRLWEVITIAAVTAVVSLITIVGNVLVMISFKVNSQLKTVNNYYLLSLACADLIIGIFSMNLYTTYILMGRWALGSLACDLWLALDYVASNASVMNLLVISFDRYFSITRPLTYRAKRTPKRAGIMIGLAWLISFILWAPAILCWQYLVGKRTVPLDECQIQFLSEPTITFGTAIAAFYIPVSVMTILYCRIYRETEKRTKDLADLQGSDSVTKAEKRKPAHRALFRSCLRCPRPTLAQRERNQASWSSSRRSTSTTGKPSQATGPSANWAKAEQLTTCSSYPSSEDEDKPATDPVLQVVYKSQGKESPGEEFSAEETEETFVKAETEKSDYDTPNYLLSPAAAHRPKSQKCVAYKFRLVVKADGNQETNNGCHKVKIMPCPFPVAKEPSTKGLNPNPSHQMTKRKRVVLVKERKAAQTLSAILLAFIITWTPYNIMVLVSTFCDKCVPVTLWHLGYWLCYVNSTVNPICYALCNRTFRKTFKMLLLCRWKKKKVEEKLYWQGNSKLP
Put plainly: CHRM5 Ca++ Flux Assay (agonist mode, FDSS 7000EX). It counts as cell-based. To be noted: for pEC50: agonist mode, geometric mean if tested more than once, read-out: M5 FDSS EC50. The method, then:
as §1
CHO-K1 cells stably expressing the human cloned CHRM3 receptor (M3_CHO cells) were grown and maintained in a monolayer culture with F12/HAM (Life Technologies) supplemented with 10% Fetal Bovine Serum, 1× Pen-Strep, and 0.4 mg/mL Geneticin in a humidified atmosphere (5% CO2) at 37° C. The cultures were grown to 80-9 0% confluency in T150 flasks (Corning) and washed with 1×DPBS and lifted with 0.05% Trypsin (Life Technologies). The cells were then spun (1K rpm, 3 minutes) and frozen using Recovery Cell Culture Freezing Media (Gibco Technologies). Cells were stored in liquid nitrogen and thawed a day before the assay. A similar procedure was used for cells stably expressing the human cloned CHRM5 receptor (M5_CHO).
Prior to the day of the assay, stable M3_CHO or M5_CHO cells were thawed and plated on Greiner 384 well black TC treated plates at 12K cells/well in F12/DMEM supplemented with 10% FBS (Hyclone) and kept overnight in a humidified atmosphere (5% CO2) at 37° C. The next day, cells were loaded with Ca^++ dye (BD Biosciences) using Loading Buffer (HBSS +Ca/+Mg, 20 mM HEPES, 2.5 mM Probenecid) and placed back in cell incubator for a minimum of 1 hour. After incubation, the dye was replaced with Assay Buffer (HBSS −Ca/−Mg, 20 mM HEPES, 2.5 mM Probenecid) and kept at room temperature in the dark before running on cell imager. The FDSS 7000EX (Hamamatsu) was used to acquire Ca^++ traces from cells treated with 11 point dose response of compounds in triplicate in order to generate dose response curves in agonist mode. All compounds were serially diluted in DMSO then prepared in Assay Buffer for Ca^++ flux studies. The dose response curves were generated from the average of triplicate wells obtained from each data point and used a non-linear regression of four parameter dose response algorithm. The Percent Activity (PA) was measured to EC100 of Carbachol.

Setting [3] is: Percent Activity measured to EC100 of Carbachol.
[4] abbreviates: Percent Activity measured to EC100 of Carbachol, citrate salt.

The results in this text go back to patent US12122761B2, “2-azaspiro[3.4]octane derivatives as M4 agonists” (NOVARTIS AG, priority 2019, dated 2024).

Each structure is given as a SMILES string. pEC50: −log10 of the molar value. Where two headings read alike, the source gives them in different places.

As to `c1ccc(C2CCN([C@@H]3CCC4(C3)CN(c3nnco3)C4)CC2)c(OC[C@H]2COCCO2)c1` [Example 1C, 2-((R)-6-(4-(2-(((R)-1,4-dioxan-2-yl)methoxy)phenyl)piperidin-1-yl)-2-azaspiro[3.4]octan-2-yl)-1,3,4-oxadiazole], the Emax in assay [1] (HEK293, Percent Activity, read-out: M1 FDSS PA) amounted to 85%; in assay [2] (Percent Activity measured to EC100 of Carbachol, read-out: M5 FDSS PA), 0%. Besides, the pEC50 (as a rule, the EC50 on a negative log10 scale, so that one unit is a factor of ten) in assay [1] is 7.25; in assay [2] it was less than 4.60.
Regarding `O=C(N1CC2(CC[C@@H](N3CCC(c4ccccc4OCCC(F)(F)F)CC3)C2)C1)C1(F)CC1` (single isomer, unassigned) [Example 7AA, (R)-(1-fluorocyclopropyl)(6-(4-(2-(3,3,3-trifluoropropoxy)phenyl)piperidin-1-yl)-2-azaspiro[3.4]octan-2-yl)methanone or (S)-(1-fluorocyclopropyl)(6-(4-(2-(3,3,3-trifluoropropoxy)phenyl)piperidin-1-yl)-2-azaspiro[3.4]octan-2-yl)methanone], in assay [1], the “M1 FDSS PA” value came out at 57% and the pEC50 is 6.86. In addition, in assay [2] (setting [3]), the “M5 FDSS PA” value was found to be 0%. Moreover, the pEC50 in assay [2] was less than 4.60.
In the same order, the values of `Fc1ccc(C2CCOCC2)c(C2CCN([C@@H]3CCC4(C3)CN(c3cncnc3)C4)CC2)c1` (single isomer, unassigned) [Example 10D, (R)-6-(4-(5-fluoro-2-(tetrahydro-2H-pyran-4-yl)phenyl)piperidin-1-yl)-2-(pyrimidin-5-yl)-2-azaspiro[3.4]octane or (S)-6-(4-(5-fluoro-2-(tetrahydro-2H-pyran-4-yl)phenyl)piperidin-1-yl)-2-(pyrimidin-5-yl)-2-azaspiro[3.4]octane] are 55%, 5.85, 0% and less than 4.60.
In the same order, the values of `Cc1nc(COc2ccccc2C2CCN([C@@H]3CCC4(C3)CN(C(=O)C3(F)CC3)C4)CC2)no1` (single isomer, unassigned) [Example 7Z, (R)-(1-fluorocyclopropyl)(6-(4-(2-((5-methyl-1,2,4-oxadiazol-3-yl)methoxy)phenyl)piperidin-1-yl)-2-azaspiro[3.4]octan-2-yl)methanone or (S)-(1-fluorocyclopropyl)(6-(4-(2-((5-methyl-1,2,4-oxadiazol-3-yl)methoxy)phenyl)piperidin-1-yl)-2-azaspiro[3.4]octan-2-yl)methanone] are 77%, 6.68, 0% and less than 4.60.
On the same counts, the results for `O=C(N1CC2(CC[C@@H](N3CCC(c4cc(F)ccc4OC4CCOCC4)CC3)C2)C1)C1(F)CC1` (single isomer, unassigned) [Example 9D, (R)-(6-(4-(5-fluoro-2-((tetrahydro-2H-pyran-4-yl)oxy)phenyl)piperidin-1-yl)-2-azaspiro[3.4]octan-2-yl)(1-fluorocyclopropyl)methanone or (S)-(6-(4-(5-fluoro-2-((tetrahydro-2H-pyran-4-yl)oxy)phenyl)piperidin-1-yl)-2-azaspiro[3.4]octan-2-yl)(1-fluorocyclopropyl)methanone] are 23%, 5.75, 0% and less than 4.60.
Turning to `O=C(N1CC2(CC[C@@H](N3CCC(c4ccccc4OC4CC5(COC5)C4)CC3)C2)C1)C1(F)CC1` (single isomer, unassigned) [Example 11D, (R)-(6-(4-(2-((2-oxaspiro[3.3]heptan-6-yl)oxy)phenyl)piperidin-1-yl)-2-azaspiro[3.4]octan-2-yl)(1-fluorocyclopropyl)methanone or (S)-(6-(4-(2-((2-oxaspiro[3.3]heptan-6-yl)oxy)phenyl)piperidin-1-yl)-2-azaspiro[3.4]octan-2-yl)(1-fluorocyclopropyl)methanone], in assay [1], the “M1 FDSS PA” value is listed as 1% and the pEC50 is less than 4.60. In addition, the “M5 FDSS PA” value in assay [2] (setting [3]) came out at 0%. In addition, the pEC50 in assay [2] is less than 4.60.
Turning to `O=C(C1COC1)N1CC2(CC[C@H](N3CCC(c4ccccc4OC(F)F)CC3)C2)C1.O=C(O)CC(O)(CC(=O)O)C(=O)O` (single isomer, unassigned) [Example 8F, (S)-(6-(4-(2-(difluoromethoxy)phenyl)piperidin-1-yl)-2-azaspiro[3.4]octan-2-yl)(oxetan-3-yl)methanone or (R)-(6-(4-(2-(difluoromethoxy)phenyl)piperidin-1-yl)-2-azaspiro[3.4]octan-2-yl)(oxetan-3-yl)methanone citrate salt], in assay [2] (setting [4]), the “M5 FDSS PA” value is recorded as 0%. For the same molecule, the pEC50 in assay [2] (citrate salt) is less than 4.60.
In the same order, the values of `O=C(C1COC1)N1CC2(CC[C@H](N3CCC(c4ccccc4OC(F)F)CC3)C2)C1.O=C(O)CC(O)(CC(=O)O)C(=O)O` (single isomer, unassigned) [Example 8E, (S)-(6-(4-(2-(difluoromethoxy)phenyl)piperidin-1-yl)-2-azaspiro[3.4]octan-2-yl)(oxetan-3-yl)methanone or (R)-(6-(4-(2-(difluoromethoxy)phenyl)piperidin-1-yl)-2-azaspiro[3.4]octan-2-yl)(oxetan-3-yl)methanone citrate salt] are 1% and 5.67.
